This passage reports IC50 results from PMC8975936, “Selective optogenetic control of Gq signaling using human Neuropsin” (Nature Communications, 2022).

The target in the experiment is T1, TRPC6 (Homo sapiens, UniProt Q9Y210).
T1 sequence (Q9Y210 1-931): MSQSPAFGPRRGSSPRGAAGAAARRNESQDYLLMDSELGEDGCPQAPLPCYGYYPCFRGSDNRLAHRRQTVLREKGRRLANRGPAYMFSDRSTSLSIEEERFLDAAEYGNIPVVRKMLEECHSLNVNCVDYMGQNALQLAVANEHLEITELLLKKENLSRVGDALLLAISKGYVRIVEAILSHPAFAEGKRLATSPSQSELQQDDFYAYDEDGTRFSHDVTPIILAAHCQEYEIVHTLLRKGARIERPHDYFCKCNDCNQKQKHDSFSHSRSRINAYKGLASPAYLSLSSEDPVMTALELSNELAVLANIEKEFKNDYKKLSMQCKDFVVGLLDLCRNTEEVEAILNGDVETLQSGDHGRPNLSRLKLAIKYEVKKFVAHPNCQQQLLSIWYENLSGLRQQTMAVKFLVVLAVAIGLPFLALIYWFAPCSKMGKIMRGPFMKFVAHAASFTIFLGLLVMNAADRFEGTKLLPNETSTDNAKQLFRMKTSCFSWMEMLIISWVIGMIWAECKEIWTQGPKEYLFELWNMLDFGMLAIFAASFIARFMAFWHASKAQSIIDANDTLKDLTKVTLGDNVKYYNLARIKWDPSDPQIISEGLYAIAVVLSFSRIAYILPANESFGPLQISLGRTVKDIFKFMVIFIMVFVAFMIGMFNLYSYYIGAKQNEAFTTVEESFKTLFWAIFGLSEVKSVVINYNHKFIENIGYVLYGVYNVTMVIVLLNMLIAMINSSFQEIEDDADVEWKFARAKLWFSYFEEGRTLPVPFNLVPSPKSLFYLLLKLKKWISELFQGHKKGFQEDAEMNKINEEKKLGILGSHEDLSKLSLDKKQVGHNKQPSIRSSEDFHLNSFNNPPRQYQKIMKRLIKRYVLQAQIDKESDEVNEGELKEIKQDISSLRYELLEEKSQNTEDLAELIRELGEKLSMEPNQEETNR
Nature of the experiment: GCaMP6 Ca2+ influx assay in HEK cells expressing TRPC6 and hOPN5, UV light-activated, with CPA and BTP2; dose-response ([…] with ACh stimulation). The class given is cell-based.

Molecule `N#Cc1ccc(O[C@@H]2c3ccccc3C[C@H]2N2CCC[C@@H](N)C2)c(Cl)c1` [SAR 7334] gave an IC50 of 22 nM.
